Measurements published in paper PMC7031696 (Cell chemical biology, 2019).

System: 3D7-MR4 trophozoite parasite-infected RBCs
Assay: Metabolomic profiling (hydrophilic metabolite changes, UHPLC-MS)
Format: cell-based, Plasmodium falciparum

CC(C)(C)NCc1cc(Nc2ccnc3cc(Cl)ccc23)c2c(c1O)CCCC2 [Naphtoquine, Naphthoquine, reference compound]
changes within the set of metabolites detected (low fold change group) (10 × IC50^72h, 2.5 hr, trophozoites): did not induce major changes
Log2(fold changes) 1_3-Bisphosphoglyceric acid (metabolite 1_3-Bisphosphoglyceric acid, log2 fold change): 0.0605
Log2(fold changes) 2-Hydroxy-2-methylbutanedioic acid (metabolite 2-Hydroxy-2-methylbutanedioic acid, log2 fold change): 0.0920
Log2(fold changes) 2-Isopropylmalic acid (metabolite 2-Isopropylmalic acid, log2 fold change): 0.0000
Log2(fold changes) 2-dehydro-D-gluconate (metabolite 2-dehydro-D-gluconate, log2 fold change): -0.0605
Log2(fold changes) 2-oxo-4-methylthiobutanoate (metabolite 2-oxo-4-methylthiobutanoate, log2 fold change): 0.0000
Log2(fold changes) 2_3-Diphosphoglyceric acid (metabolite 2_3-Diphosphoglyceric acid, log2 fold change): 0.0000
Log2(fold changes) 3-phosphoglycerate (metabolite 3-phosphoglycerate, log2 fold change): 0.2077
Log2(fold changes) 3-phosphoserine (metabolite 3-phosphoserine, log2 fold change): -0.0700
Log2(fold changes) 4-Pyridoxic acid (metabolite 4-Pyridoxic acid, log2 fold change): 0.2073
Log2(fold changes) 4-aminobutyrate (metabolite 4-aminobutyrate, log2 fold change): 0.0263
Log2(fold changes) 4-phosphopantetheine (metabolite 4-phosphopantetheine, log2 fold change): 0.0000
Log2(fold changes) 4-phosphopantothenate (metabolite 4-phosphopantothenate, log2 fold change): -0.0475
Log2(fold changes) 5-aminopentanoic acid (metabolite 5-aminopentanoic acid, log2 fold change): 0.0000
Log2(fold changes) 5-methyl-THF (metabolite 5-methyl-THF, log2 fold change): 0.0000
Log2(fold changes) 5-phosphoribosyl-1-pyrophosphate (metabolite 5-phosphoribosyl-1-pyrophosphate, log2 fold change): 0.0000
Log2(fold changes) 6-phospho-D-gluconate (metabolite 6-phospho-D-gluconate, log2 fold change): 0.1085
Log2(fold changes) ADP-D-glucose (metabolite ADP-D-glucose, log2 fold change): 0.0398
Log2(fold changes) Acetyl-glycine (metabolite Acetyl-glycine, log2 fold change): 0.0000
Log2(fold changes) Acetyllysine (metabolite Acetyllysine, log2 fold change): -0.1423
Log2(fold changes) Aminoadipic acid (metabolite Aminoadipic acid, log2 fold change): 0.0000
Log2(fold changes) CDP (metabolite CDP, log2 fold change): -0.5923
Log2(fold changes) CDP-choline (metabolite CDP-choline, log2 fold change): -0.0652
Log2(fold changes) CDP-ethanolamine (metabolite CDP-ethanolamine, log2 fold change): -0.0101
Log2(fold change) of CMP (metabolite CMP): -0.1194
Log2(fold change) of CTP (metabolite CTP): 0.1369
Log2(fold changes) Citraconic acid (metabolite Citraconic acid, log2 fold change): 0.0000
Log2(fold change) of D-glucarate (metabolite D-glucarate): 0.1211
Log2(fold change) of D-gluconate (metabolite D-gluconate): 0.1168
Log2(fold change) of D-glucosamine-1/6-phosphate (metabolite D-glucosamine-1/6-phosphate): 0.0000
Log2(fold change) of D-sedoheptulose-1/7-phosphate (metabolite D-sedoheptulose-1/7-phosphate): -0.1410
Log2(fold change) of DL-Pipecolic Acid (metabolite DL-Pipecolic Acid): 0.1435
Log2(fold change) of DLH (metabolite DLH): 0.3114
Log2(fold change) of DLS (metabolite DLS): 0.0979
Log2(fold change) of Decanoyl-CoA (metabolite Decanoyl-CoA): 0.0000
Log2(fold change) of EV (metabolite EV): -0.1292
Log2(fold change) of FAD (metabolite FAD): 0.0352
Log2(fold change) of FMN (metabolite FMN): 0.1758
Log2(fold change) of G3P/DHAP (metabolite G3P/DHAP): 0.0000
Log2(fold change) of GDP (metabolite GDP): -0.5345
Log2(fold change) GMP (metabolite GMP): 0.0470
Log2(fold change) GTP (metabolite GTP): 0.0942
Log2(fold change) HVDD (metabolite HVDD): 0.0000
Log2(fold change) Hexose (metabolite Hexose): 0.0000
Log2(fold change) Hydroxyisocaproic acid (metabolite Hydroxyisocaproic acid): 0.0000
Log2(fold change) IDP (metabolite IDP): 0.0737
Log2(fold change) IMP (metabolite IMP): -0.0394
Log2(fold change) Inositol (metabolite Inositol): 0.0000
Log2(fold change) Isopentyl-PP (metabolite Isopentyl-PP): 0.0000
Log2(fold change) L-arginino-succinate (metabolite L-arginino-succinate): -0.0233
Log2(fold change) LD (metabolite LD): 0.1467
Log2(fold change) Myristoyl/tetradecanoyl-CoA (metabolite Myristoyl/tetradecanoyl-CoA): 0.0252
Log2(fold change) N-Acetyl-L-alanine (metabolite N-Acetyl-L-alanine): 0.1261
Log2(fold change) N-acetyl-L-ornithine (metabolite N-acetyl-L-ornithine): -0.0214
Log2(fold change) N-acetyl-glucosamine-1/6-phosphate (metabolite N-acetyl-glucosamine-1/6-phosphate): 0.0000
Log2(fold change) N-acetyl-glutamate (metabolite N-acetyl-glutamate): 0.0412
Log2(fold change) N-acetyl-glutamine (metabolite N-acetyl-glutamine): 0.0000
Log2(fold change) N-carbamoyl-L-aspartate (metabolite N-carbamoyl-L-aspartate): 0.0625
Log2(fold change) NAD+ (metabolite NAD+): -0.0154
Log2(fold change) NADH (metabolite NADH): 0.0000
Log2(fold change) NADP+ (metabolite NADP+): 0.0692
Log2(fold change) NADPH (metabolite NADPH): -0.1981
Log2(fold change) O-acetyl-L-serine (metabolite O-acetyl-L-serine): 0.0000
Log2(fold change) Octoluse 8/1P (metabolite Octoluse 8/1P): -0.0241
Log2(fold change) Octoluse Bisphosphate (metabolite Octoluse Bisphosphate): 0.0717
Log2(fold change) PD (metabolite PD): 0.0223
Log2(fold change) PE (metabolite PE): 0.1349
Log2(fold change) PEE (metabolite PEE): 0.2438
Log2(fold change) PEEK (metabolite PEEK): 0.3424
Log2(fold change) PVNF (metabolite PVNF): 0.2854
Log2(fold change) Pyroglutamic acid (metabolite Pyroglutamic acid): -0.2488
Log2(fold change) Pyrophosphate (metabolite Pyrophosphate): 0.0000
Log2(fold change) Ribose-5-phosphate (metabolite Ribose-5-phosphate): 0.1278
Log2(fold change) S-adenosyl-L-homocysteine (metabolite S-adenosyl-L-homocysteine): -0.2617
Log2(fold change) S-adenosyl-L-methioninamine (metabolite S-adenosyl-L-methioninamine): 0.0000
Log2(fold change) S-adenosyl-L-methionine (metabolite S-adenosyl-L-methionine): 0.0000
Log2(fold change) S-methyl-5'-thioadenosine (metabolite S-methyl-5'-thioadenosine): 0.0070
Log2(fold change) SD (metabolite SD): 0.1296
Log2(fold change) SDL (metabolite SDL): 0.0391
Log2(fold change) SID (metabolite SID): 0.2783
Log2(fold change) Sedoheptulose bisphosphate (metabolite Sedoheptulose bisphosphate): 0.1433
Log2(fold change) Thiamine pyrophosphate (metabolite Thiamine pyrophosphate): 0.0526
Log2(fold changes) UDP-D-glucose (metabolite UDP-D-glucose, log2 fold change): 0.0961
Log2(fold changes) UDP-D-glucuronate (metabolite UDP-D-glucuronate, log2 fold change): 0.1278
Log2(fold changes) UDP-N-acetyl-glucosamine (metabolite UDP-N-acetyl-glucosamine, log2 fold change): 0.0189
Log2(fold changes) UDP (metabolite UDP, log2 fold change): -0.6136
Log2(fold changes) UMP (metabolite UMP, log2 fold change): -0.1186
Log2(fold changes) UTP (metabolite UTP, log2 fold change): 0.1051
Log2(fold changes) VD (metabolite VD, log2 fold change): 0.0754
Log2(fold changes) Xanthurenic acid (metabolite Xanthurenic acid, log2 fold change): 0.0000
Log2(fold changes) a-ketoglutarate (metabolite a-ketoglutarate, log2 fold change): 0.1610
Log2(fold changes) acetyl-CoA (metabolite acetyl-CoA, log2 fold change): 0.1670
Log2(fold changes) acetyl-aspartate (metabolite acetyl-aspartate, log2 fold change): 0.0000
Log2(fold changes) acetylphosphate (metabolite acetylphosphate, log2 fold change): 0.0000
Log2(fold changes) aconitate (metabolite aconitate, log2 fold change): 0.1208
Log2(fold changes) adenine (metabolite adenine, log2 fold change): 0.0000
Log2(fold changes) adenosine 5'-phosphosulfate (metabolite adenosine 5'-phosphosulfate, log2 fold change): 0.0000
